# In patent US12084437B2, “Halo-substituted piperidines as orexin receptor modulators” (AstraZeneca AB, priority 2016, dated 2024):
# How the values were obtained:
# OX1 = target: T1, OX1 (Homo sapiens, UniProt O43613); assay: Orexin receptor cell-based functional assay, [Ca2+]i by FLIPR, CHO-OX1 cells; conditions: FLIPR calcium, antagonism of EC90 of [OX], read-out: OXI, IC50
# T1 construct: expressed in transfected cells; host or cells: CHO (CHO-OX1)
# T1 sequence (O43613 1-425): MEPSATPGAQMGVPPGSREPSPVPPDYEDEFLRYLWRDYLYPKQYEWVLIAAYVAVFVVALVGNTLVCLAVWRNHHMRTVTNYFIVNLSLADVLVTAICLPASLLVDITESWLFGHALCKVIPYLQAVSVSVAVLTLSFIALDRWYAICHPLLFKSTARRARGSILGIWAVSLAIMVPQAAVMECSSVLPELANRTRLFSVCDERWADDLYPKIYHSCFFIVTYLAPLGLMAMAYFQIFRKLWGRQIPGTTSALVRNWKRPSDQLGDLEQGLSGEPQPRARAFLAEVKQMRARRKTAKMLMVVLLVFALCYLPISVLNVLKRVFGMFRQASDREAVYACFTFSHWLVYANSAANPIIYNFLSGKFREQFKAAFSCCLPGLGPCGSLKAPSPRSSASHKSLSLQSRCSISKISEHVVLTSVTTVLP
# OX2 = target: T2, OX2 (Homo sapiens, UniProt O43614); assay: Orexin receptor cell-based functional assay, [Ca2+]i by FLIPR, CHO-OX2 cells; conditions: FLIPR calcium, antagonism of EC90 of [OX]
# T2 construct: expressed in transfected cells; host or cells: CHO (CHO-OX2)
# T2 sequence (O43614 1-444): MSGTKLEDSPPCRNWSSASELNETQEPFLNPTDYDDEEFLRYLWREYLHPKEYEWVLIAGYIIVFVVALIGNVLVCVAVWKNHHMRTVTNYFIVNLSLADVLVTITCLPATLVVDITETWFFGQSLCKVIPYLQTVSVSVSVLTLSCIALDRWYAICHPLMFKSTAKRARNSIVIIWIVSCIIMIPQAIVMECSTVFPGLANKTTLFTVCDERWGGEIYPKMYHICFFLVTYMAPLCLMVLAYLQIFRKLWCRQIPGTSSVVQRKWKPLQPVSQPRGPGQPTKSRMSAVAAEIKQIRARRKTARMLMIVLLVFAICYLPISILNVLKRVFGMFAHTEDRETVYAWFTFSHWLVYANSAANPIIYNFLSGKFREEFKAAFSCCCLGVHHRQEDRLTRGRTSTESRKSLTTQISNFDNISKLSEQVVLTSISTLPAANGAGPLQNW
# Procedure, shortened: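 CHO cells expressing human OX1 or OX2 (20,000/well, grown overnight) were loaded with Calcium6 dye plus 2.5 mM probenecid for 2 h at 37 °C, then preincubated 30 min with compound (0.1 nM–10 µM). FLIPR fluorescence (ex 488/em 540 nm) was tracked before and after an EC90 orexin challenge.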
Compound,IC50 (OX1),IC50 (OX2)
Cc1cccc(-c2cn(C)nc2C(=O)N2CC(F)(F)C[C@@H](C)[C@H]2CNc2ncc(C(F)(F)F)cn2)n1 [Compound 46],7 nM,> 5000 nM
Cc1nc(C(=O)N2CC(F)(F)C[C@@H](C)[C@H]2CNc2ncc(C(F)(F)F)cn2)c(-c2cccc(F)c2)s1 [Compound 67],5 nM,1110 nM
C[C@@H]1CC(F)(F)CN(C(=O)c2nn(C)cc2-c2ccc(Cl)cc2)[C@@H]1CNc1ncc(C(F)(F)F)cn1 [Compound 33],4 nM,4700 nM
Cc1ccc(-n2nccn2)c(C(=O)N2CC(F)(F)C[C@@H](C)[C@H]2CNc2ncc(Cl)cn2)n1 [Compound 13],15 nM,> 5000 nM
Cc1nc(C(=O)N2CC(F)(F)C[C@@H](C)[C@H]2CNc2cnc(C(F)(F)F)cn2)c(-c2ccccc2)o1 [Compound 157],186 nM,> 5000 nM
